Experimental data as given in ChEMBL document CHEMBL1201862, “PubChem BioAssay data set” (2004).
Values joined by “and” are separate entries in the source; they are usually repeats but may differ in a detail not shown here. Equal entries are not always repeated. Structures can show the parent of a compound that is named as a salt. Active and inactive are the calls of the source.

How the values were obtained:
[1] = target: T1, Mannose-6-phosphate isomerase (Homo sapiens, UniProt P34949); assay: MPI inhibition at elevated mannose 6-phosphate – biochemical, fluorescence intensity, high mannose 6-phosphate, primary screen (AID 1220)
T1 sequence (P34949 whole entry): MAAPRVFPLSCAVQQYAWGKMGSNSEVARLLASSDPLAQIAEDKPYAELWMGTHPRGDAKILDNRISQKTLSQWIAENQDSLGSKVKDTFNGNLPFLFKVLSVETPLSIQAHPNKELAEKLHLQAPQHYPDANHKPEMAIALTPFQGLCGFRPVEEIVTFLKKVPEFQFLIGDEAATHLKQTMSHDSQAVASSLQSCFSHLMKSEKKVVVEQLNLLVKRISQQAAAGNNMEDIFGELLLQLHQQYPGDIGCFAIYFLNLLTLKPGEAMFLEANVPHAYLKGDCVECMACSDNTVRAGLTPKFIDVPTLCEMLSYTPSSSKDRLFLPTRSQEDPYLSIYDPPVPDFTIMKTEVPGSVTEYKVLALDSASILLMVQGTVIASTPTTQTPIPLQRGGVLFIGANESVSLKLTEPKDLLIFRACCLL

[2] = target: Intestinal-type alkaline phosphatase (Mus musculus, UniProt P24822); assay: PubChem AID 488874; format: functional
[3] = target: T2, COUP transcription factor 2 (Homo sapiens, UniProt P24468); assay: Luminescence-based cell-based high throughput dose response assay to identify inhibitors of COUP-TFII (NR2F2).; format: functional;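 also: HEK293 cells transiently cotransfected with COUP-TFII expression vector and reporter; luciferase reporter luminescence driven by COUP-TFII from the pX2-168 reporter plasmid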
T2 sequence (P24468 whole entry): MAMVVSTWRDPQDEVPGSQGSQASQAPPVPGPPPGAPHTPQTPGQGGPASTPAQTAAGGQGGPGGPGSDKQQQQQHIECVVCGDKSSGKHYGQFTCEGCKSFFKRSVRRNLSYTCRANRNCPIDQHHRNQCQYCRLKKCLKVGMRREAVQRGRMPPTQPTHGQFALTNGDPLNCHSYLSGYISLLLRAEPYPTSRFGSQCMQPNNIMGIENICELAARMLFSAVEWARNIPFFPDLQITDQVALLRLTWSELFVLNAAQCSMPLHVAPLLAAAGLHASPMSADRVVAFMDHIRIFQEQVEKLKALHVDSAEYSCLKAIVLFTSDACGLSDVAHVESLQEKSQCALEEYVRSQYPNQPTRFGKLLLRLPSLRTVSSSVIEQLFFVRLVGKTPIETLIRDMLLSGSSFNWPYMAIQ

CAAX prenyl protease 1 = CAAX prenyl protease 1 (Saccharomyces cerevisiae S288c, UniProt P47154); assay: yeast CAAX protease Ste24 inhibition – biochemical, S. cerevisiae, plate reader, cherry-pick, dose response (AID 488815)
[4] = target: Induced myeloid leukemia cell differentiation protein Mcl-1 (Homo sapiens, UniProt Q07820); assay: blockers of MCL1 binding to BIM peptide – biochemical, fluorescence polarization, BIM-BH3 peptide, 1536-well, dose response (AID 2217)
[5] = target: 5-hydroxytryptamine receptor 1A (Homo sapiens, UniProt P08908); format: functional
Caspase-6 = target: T3, Caspase-6 (Homo sapiens, UniProt P55212); assay: inhibition of CASP6 peptide cleavage – biochemical, VEID-R110 fluorescence, cherry-pick, dose response (AID 720632)
T3 sequence (P55212 whole entry): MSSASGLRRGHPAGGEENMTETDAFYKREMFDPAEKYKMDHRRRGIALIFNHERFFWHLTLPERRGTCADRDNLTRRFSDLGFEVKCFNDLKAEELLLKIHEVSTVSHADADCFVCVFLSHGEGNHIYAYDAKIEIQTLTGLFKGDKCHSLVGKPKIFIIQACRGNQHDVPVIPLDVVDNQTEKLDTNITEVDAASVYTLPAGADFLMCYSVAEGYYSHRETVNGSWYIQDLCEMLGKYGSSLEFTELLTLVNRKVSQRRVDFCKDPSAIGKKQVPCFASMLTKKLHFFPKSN

[6] = target: 5'-AMP-activated protein kinase catalytic subunit alpha-1 (Homo sapiens, UniProt Q13131); format: functional
[7] = target: Serine/threonine-protein kinase D3 (Homo sapiens, UniProt O94806); format: functional;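 also: determined within a kinase panel screen, with PRKCN as the panel member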
[8] = target: Tyrosine-protein kinase Lck (Homo sapiens, UniProt P06239); format: functional;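 also: lck was assayed as one member of a kinase panel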
Aurora kinase A = Aurora kinase A (Homo sapiens, UniProt O14965); format: functional;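 also: value from the Navigating the Kinome kinase panel profiling, panel entry STK6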
LIM domain kinase 1 = LIM domain kinase 1 (Homo sapiens, UniProt P53667); assay: Navigating the Kinome. Panel member name: LIMK1; format: functional
[9] = target: High affinity nerve growth factor receptor (Homo sapiens, UniProt P04629); format: functional;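 also: NTRK1 tested as one member of a kinome-wide profiling panel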
[10] = target: Non-receptor tyrosine-protein kinase TYK2 (Homo sapiens, UniProt P29597); format: functional
[11] = target: Proto-oncogene tyrosine-protein kinase Src (Homo sapiens, UniProt P12931); format: functional;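 also: SRC entry within a kinome-wide kinase profiling panel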
[12] = target: Dual specificity tyrosine-phosphorylation-regulated kinase 3 (Homo sapiens, UniProt O43781); format: functional;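 also: measured as one member of a broad kinase panel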
[13] = target: Hepatocyte growth factor receptor (Homo sapiens, UniProt P08581); format: functional;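 also: kinase panel profiling across the kinome, with MET as the panel member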
[14] = target: Receptor-type tyrosine-protein kinase FLT3 (Homo sapiens, UniProt P36888); format: functional;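 also: FLT3 was tested as one member of a kinome-wide kinase panel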
[15] = target: MAP kinase-activated protein kinase 3 (Homo sapiens, UniProt Q16644); format: functional;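 also: value comes from a kinome-wide profiling panel in which MAPKAPK3 is one of the panel members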
[16] = target: Vascular endothelial growth factor receptor 2 (Homo sapiens, UniProt P35968); format: functional
[17] = target: Mitogen-activated protein kinase 1 (Homo sapiens, UniProt P28482); format: functional
[18] = target: Maternal embryonic leucine zipper kinase (Homo sapiens, UniProt Q14680); format: functional
[19] = target: Vascular endothelial growth factor receptor 3 (Homo sapiens, UniProt P35916); format: functional;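 also: value from a kinome-wide profiling panel, with FLT4 as the panel member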
[20] = target: Serine/threonine-protein kinase DCLK1 (Homo sapiens, UniProt O15075); format: functional;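 also: affinity for DCLK1 (listed as DCAMKL1) measured as one member of a kinome-wide kinase profiling panel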
[21] = target: Cyclin-dependent kinase 7 (Homo sapiens, UniProt P50613); format: functional;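 also: value comes from a kinome-wide kinase profiling panel in which CDK7 is one member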
[22] = target: Fibroblast growth factor receptor 3 (Homo sapiens, UniProt P22607); format: functional
[23] = target: Macrophage-stimulating protein receptor (Homo sapiens, UniProt Q04912); assay: Navigating the Kinome. Panel member name: MST1R; format: functional
[24] = target: Dual specificity mitogen-activated protein kinase kinase 2 (Homo sapiens, UniProt P36507); assay: Navigating the Kinome. Panel member name: MAP2K2; format: functional
[25] = target: Leukocyte tyrosine kinase receptor (Homo sapiens, UniProt P29376); assay: Navigating the Kinome. Panel member name: LTK; format: functional

Serine/threonine-protein kinase DCLK1, sequence (O15075 whole entry): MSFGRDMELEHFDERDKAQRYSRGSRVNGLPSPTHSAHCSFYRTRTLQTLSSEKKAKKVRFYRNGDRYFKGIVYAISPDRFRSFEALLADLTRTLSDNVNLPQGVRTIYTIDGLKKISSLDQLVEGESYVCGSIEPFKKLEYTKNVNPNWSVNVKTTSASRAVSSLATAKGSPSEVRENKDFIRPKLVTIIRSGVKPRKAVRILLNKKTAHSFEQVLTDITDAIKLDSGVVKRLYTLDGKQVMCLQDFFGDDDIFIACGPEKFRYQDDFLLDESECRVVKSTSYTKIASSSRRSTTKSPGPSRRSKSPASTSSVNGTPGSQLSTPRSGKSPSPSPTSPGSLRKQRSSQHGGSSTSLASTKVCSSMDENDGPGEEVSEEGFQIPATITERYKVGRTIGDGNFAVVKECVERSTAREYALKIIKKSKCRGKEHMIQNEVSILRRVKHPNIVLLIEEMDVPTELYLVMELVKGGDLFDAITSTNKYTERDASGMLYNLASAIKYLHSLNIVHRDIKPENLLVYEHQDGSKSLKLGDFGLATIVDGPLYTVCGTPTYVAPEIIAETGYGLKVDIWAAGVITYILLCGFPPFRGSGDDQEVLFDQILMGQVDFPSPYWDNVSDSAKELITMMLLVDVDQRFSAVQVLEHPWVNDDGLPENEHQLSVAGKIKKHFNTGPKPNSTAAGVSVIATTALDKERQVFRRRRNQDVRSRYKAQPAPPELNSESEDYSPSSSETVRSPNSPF
Tyrosine-protein kinase Lck, sequence (P06239 whole entry): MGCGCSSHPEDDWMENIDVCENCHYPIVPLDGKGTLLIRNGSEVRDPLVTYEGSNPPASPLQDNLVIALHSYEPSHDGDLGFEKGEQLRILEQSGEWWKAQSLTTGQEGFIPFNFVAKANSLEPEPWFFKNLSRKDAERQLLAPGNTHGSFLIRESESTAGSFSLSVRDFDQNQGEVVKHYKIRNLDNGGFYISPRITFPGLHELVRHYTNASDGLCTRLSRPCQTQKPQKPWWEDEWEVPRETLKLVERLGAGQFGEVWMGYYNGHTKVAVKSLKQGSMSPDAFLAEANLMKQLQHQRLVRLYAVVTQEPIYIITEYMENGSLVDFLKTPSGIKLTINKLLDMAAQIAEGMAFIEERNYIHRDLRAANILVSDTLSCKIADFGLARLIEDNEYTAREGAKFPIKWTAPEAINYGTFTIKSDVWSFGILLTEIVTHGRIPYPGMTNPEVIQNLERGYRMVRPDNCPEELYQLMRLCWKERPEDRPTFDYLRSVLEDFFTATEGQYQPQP
Hepatocyte growth factor receptor, sequence (P08581 whole entry): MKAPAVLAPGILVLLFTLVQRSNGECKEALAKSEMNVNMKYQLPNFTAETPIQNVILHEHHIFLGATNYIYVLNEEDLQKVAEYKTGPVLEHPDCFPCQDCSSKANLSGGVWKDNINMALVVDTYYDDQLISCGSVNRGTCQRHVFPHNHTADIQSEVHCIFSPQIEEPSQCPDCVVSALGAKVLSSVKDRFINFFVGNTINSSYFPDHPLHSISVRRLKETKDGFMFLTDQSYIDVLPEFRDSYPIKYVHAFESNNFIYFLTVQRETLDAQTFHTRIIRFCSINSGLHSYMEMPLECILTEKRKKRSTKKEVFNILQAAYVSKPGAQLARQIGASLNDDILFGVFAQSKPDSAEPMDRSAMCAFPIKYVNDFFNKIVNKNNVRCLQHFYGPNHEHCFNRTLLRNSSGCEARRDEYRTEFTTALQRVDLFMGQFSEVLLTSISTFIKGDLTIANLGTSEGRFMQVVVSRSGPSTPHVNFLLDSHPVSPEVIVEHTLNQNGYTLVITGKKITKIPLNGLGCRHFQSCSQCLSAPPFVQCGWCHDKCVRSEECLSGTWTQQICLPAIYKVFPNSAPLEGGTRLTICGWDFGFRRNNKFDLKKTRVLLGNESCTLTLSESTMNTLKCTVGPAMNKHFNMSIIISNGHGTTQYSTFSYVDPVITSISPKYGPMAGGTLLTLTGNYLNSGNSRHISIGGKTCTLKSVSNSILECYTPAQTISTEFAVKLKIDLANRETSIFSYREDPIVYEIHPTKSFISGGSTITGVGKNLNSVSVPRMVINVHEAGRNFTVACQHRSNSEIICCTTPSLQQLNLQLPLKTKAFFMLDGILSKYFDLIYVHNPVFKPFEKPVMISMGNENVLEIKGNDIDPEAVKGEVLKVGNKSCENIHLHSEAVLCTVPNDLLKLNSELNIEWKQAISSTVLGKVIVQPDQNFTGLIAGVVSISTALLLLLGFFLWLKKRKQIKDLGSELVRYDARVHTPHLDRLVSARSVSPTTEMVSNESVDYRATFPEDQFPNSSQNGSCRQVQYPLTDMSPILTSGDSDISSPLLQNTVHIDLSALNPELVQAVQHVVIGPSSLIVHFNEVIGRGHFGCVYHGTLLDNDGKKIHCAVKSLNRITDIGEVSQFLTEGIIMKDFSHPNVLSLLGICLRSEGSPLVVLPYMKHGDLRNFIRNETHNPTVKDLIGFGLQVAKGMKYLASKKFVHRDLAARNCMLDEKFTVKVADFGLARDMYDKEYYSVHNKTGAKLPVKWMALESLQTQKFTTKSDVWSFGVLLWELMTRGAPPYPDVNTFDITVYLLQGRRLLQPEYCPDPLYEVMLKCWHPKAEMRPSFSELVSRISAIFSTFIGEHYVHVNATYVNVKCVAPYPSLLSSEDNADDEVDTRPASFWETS
Intestinal-type alkaline phosphatase, sequence (P24822 whole entry): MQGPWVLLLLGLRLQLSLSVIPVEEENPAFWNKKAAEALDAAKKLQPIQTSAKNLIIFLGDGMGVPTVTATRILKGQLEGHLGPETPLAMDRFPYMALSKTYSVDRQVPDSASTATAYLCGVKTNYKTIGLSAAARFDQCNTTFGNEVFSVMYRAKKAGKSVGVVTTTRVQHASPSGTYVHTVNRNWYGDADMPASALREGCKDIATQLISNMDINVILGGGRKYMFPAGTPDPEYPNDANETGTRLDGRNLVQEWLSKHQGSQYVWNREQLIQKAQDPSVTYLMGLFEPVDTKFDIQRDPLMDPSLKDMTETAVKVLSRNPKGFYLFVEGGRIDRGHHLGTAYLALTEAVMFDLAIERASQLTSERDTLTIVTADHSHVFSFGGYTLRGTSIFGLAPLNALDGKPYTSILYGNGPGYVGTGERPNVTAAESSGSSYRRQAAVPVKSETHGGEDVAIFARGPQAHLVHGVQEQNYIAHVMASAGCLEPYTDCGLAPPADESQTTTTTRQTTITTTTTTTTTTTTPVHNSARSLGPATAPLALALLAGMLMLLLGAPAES
LIM domain kinase 1, sequence (P53667 whole entry, the tested form may be a part): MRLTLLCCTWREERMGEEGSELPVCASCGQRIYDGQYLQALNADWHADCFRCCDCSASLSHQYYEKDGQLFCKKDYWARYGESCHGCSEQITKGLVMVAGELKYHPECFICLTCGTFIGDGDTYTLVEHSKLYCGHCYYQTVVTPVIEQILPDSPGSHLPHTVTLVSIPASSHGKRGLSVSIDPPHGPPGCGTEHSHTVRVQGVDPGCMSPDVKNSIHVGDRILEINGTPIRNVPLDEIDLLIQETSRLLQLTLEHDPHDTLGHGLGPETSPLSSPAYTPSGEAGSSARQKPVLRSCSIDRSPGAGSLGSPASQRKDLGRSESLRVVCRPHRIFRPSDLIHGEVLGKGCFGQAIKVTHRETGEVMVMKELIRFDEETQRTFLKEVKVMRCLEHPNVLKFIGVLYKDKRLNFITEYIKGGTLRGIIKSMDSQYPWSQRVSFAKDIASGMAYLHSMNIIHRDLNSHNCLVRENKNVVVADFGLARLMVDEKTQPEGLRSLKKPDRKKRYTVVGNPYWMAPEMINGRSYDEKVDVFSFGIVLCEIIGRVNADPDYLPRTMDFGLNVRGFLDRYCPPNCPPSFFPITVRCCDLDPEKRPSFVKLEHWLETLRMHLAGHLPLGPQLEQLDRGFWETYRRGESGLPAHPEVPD
Serine/threonine-protein kinase D3, sequence (O94806 whole entry): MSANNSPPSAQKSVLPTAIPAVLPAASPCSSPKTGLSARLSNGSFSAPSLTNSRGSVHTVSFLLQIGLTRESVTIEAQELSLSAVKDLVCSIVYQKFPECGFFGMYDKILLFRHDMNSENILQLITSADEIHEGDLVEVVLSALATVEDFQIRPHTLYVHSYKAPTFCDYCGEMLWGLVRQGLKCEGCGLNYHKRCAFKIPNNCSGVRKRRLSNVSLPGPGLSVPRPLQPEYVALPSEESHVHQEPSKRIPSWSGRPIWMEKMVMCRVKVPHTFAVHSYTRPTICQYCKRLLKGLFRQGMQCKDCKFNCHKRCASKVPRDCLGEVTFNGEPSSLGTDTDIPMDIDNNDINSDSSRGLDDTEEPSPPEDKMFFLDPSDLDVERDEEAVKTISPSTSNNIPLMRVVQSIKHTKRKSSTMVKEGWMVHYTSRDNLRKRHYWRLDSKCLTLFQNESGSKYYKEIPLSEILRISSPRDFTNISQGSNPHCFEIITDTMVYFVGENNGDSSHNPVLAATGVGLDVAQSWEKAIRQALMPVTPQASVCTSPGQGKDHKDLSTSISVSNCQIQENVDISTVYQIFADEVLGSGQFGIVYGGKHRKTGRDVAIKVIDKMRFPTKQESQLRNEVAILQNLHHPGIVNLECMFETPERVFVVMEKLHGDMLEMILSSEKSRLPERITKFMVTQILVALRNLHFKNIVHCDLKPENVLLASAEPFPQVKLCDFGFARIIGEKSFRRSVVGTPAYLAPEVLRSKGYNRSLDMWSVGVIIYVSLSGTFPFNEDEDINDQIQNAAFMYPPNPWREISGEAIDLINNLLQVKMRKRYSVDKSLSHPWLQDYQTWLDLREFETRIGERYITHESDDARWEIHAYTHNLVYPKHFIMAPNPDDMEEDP

`CCC(C)n1c(NC(=O)c2ccccc2)c(C#N)c2nc3ccccc3nc21` (centres undefined) was tested. Which IC50 [1] did it give?
Its IC50 is > 50000 nM (not active).

With `CCN1/C(=C\c2ccc3ccccc3[n+]2CC)Sc2cc(C)ccc21` as the compound, how does the IC50 [2] read?
The IC50 was 20800 nM (active).

And the IC50 [3]?
Its IC50 is 2750 nM (active).

With `CCCCCCCCCCOC(=O)C[n+]1c(COc2ccc(C)cc2)n(C)c2ccccc21` as the compound, how does the AC50 (CAAX prenyl protease 1) read?
Its AC50 is 7210 nM (active).

With `CC[C@@H](CO)NC(=O)[C@@H]1C=C2c3cccc4c3c(cn4C)C[C@H]2N(C)C1` [METHYSERGIDE MALEATE] as the compound, how does the IC50 [4] read?
Its IC50 is 20400 nM (not active).

And the EC50 [5]?
The EC50 was 1070 nM (active).

What about the AC50 (Caspase-6) of the same compound?
Its AC50 is 11.5 µM (active) and 11.7 µM (active).

Which results are given for `CN1CCN(c2nc(C3=C(c4c[nH]c5ccccc45)C(=O)NC3=O)c3ccccc3n2)CC1` [SOTRASTAURIN]?
Ki [6]: 631 nM (active); Ki [7]: > 3160 nM (inactive); Ki [8]: > 3980 nM (inactive); Ki (Aurora kinase A): > 1580 nM (inactive); Ki (LIM domain kinase 1): > 3160 nM (inactive); Ki [9]: > 2510 nM (inactive); Ki [10]: > 2000 nM (inactive); Ki [11]: > 2000 nM (inactive); Ki [12]: 6310 nM (active); Ki [13]: > 2510 nM (inactive); Ki [14]: > 1580 nM (inactive); Ki [15]: > 10000 nM (inactive); Ki [16]: 398 nM (active); Ki [17]: > 7940 nM (inactive); Ki [18]: > 1580 nM (inactive); Ki [19]: 316 nM (active); Ki [20]: > 10000 nM (inactive); Ki [21]: > 3980 nM (inactive); Ki [22]: > 2000 nM (inactive); Ki [23]: 158 nM (active); Ki [24]: > 3980 nM (inactive); Ki [25]: 2510 nM (active)
